Data reported in patent US20020177625A1, “Class of glaucoma drugs to enhance aqueous humor outflow and lower intra-ocular pressure” (The Regents of the University of California, a California …, priority 2001, published 2002).
“Also recorded” adds a separate entry of the source.

Columns and labels:
[1] = tested on: human TM cells; experiment: Whole cell patch clamp ion conductances of human TM cells; format: cell-based; conditions: human TM cells
Experimental: Further studies conducted with agents known to block Cl and K channels attenuate the swelling-activated regulatory volume decrease in TM cells and niflumic acid reduces both cell volume and intracellular [Cl] of TM cells. In these studies, human TM cells were cultured from donor eyes and used between passages three and eight. Routine whole cell patch clamp methods were used to assess conductances of TM cells in isotonic (290 mOsm) and hypotonic (230 mOsm) media, with or without NPPB, DIDS, TEA or niflumic acid. Conductances were determined from current/voltage plots, generated using a ramp protocol. […] The reversal potential observed in the presence of hypotonic medium was close to the calculated reversal potential for Cl. Switching to an external medium containing reduced Cl shifted the reversal potential toward that calculated for the low Cl medium. Treating the TM cells with the Cl channel blocker NPPB (100 μM) abolished the swelling-activated conductance in a manner reversed by subsequent washout of NPPB. […] Finally, treatment of the cells with the K channel blocker TEA (1 mM) also abolished the niflumic acid-activated TM cell conductance.
Human TM and SC cells grown to subconfluence are gently trypsinized on the day of the experiment and immediately exposed to trypsin-neutralizing solution and then allowed to settle onto standard square (22×22-mm) glass coverslips for 30 minutes before use. Routine patch clamp methods were used as described previously Barakat, A. I., et al., Circulation Research, 85: 820-828, 1999; Hamill, O. P. et al., Pflügers Archives, 391: 85-100, 1981; Mauro, T. et al., J of Invest. Dermatology, 105: 203-208, 1995; Pappone, P. A. et al., J. of Physiology, 306:377-410, 1980; Pappone, P. A. et al., J of Gen. Physiology, 106: 231-258, 1995; Pappone, P. A. et al., Amer. J. of Physiology: Cell Physiology, 264: C1014-C1019, 1993; Wilson, S. M. et al., J. of Gen. Physiology, 113: 125-138, 1999. Using the whole cell patch clamp mode, conductances were assessed for isotonic and hypotonic media. By assessing current/voltage (I/V) relationships and reversal potentials for the TM and SC cells while using specific concentrations of Cl in the pipette and bath media, the nature of the conductances observed can be determined.
Whole cell currents were measured at room temperature in a Warner recording/perfusion chamber (Warner Instrument Corp.) using standard whole-cell patch clamp techniques as described previously, Lucero, M. T. et al., J. of Gen. Physiology, 95:523-544, 1999. Thick-walled borosilicate capillaries (Sutter Instruments, Inc., Novato, Calif.) were used to manufacture pipettes with resistances of 3 to 5 MW. The voltage offset between the patch pipette and the bath solution were nulled immediately before patch formation. An agar bridge containing […] KCl was used to ground the bath solution. Voltages were recorded from a patch-clamp amplifier (AXOPATCH 200A, Axon Instruments). Data was collected on a Macintosh personal computer using Pulse+Pulsefit software (HEKA Elektronik). Whole-cell currents were recorded from single (sub confluent) cells with membrane capacitances nulled through the patch-clamp amplifier. The voltage ramp protocol included a voltage step from the holding potential to +60 mV for 40 ms followed by a ramp to −100 mV over a period of 400 ms followed by a return to the holding potential. During the protocol, voltage ramps were conducted once every 5 seconds for 10 minutes, yielding 120 traces. Conductances were computed by taking the derivative of a least-squares straight line fit to the I-V data plots using Igor Pro Software (Wavemetrics, Inc.). In cases in which the I-V plots are not linear over the entire voltage ramp (as in FIGS. 6AB), computation of the whole-cell conductance were restricted to a linear range, typically 0 to +60 mV. […]

[2] = tested on: human TM cells; experiment: Regulatory volume decrease (RVD) of human TM cells in hypotonic medium (electronic cell sizing); format: cell-based; conditions: hypotonic medium (200 mOsm), agent at 1 mM
Experimental: (§1) By the second method, TM cells were trypsinized briefly in Ca-free medium, then rinsed with medium containing trypsin inhibitor and suspended in Hepes MEM. Mean cell volumes were then analyzed by electronic cell sizing on a COULTER COUNTER™ radioassay (Model ZM) with channelizer (C256), using at least 50,000 cells per data point and an orifice diameter of 140 μm. Aliquots of suspended cells were diluted into Hepes MEM containing the tonicity and/or agents to be evaluated. Mean cell volumes of each suspension aliquot were followed over time, starting at 1 minute after addition of cells to the assay media. Cell suspensions were maintained at 37° C. throughout the assay period. Absolute volumes (picoliters/cell) were calculated from distribution curves of cell diameter, using a standard curve generated by polystyrene latex beads of known diameter.
In FIG. 7A, cells were exposed to isotonic medium (300 mOsm) or to hypotonic medium (200 mOsm)±1 mM DPC (diphenylamine carboxylate). Cell volume was assessed by COULTER COUNTER™ electronic cell sizing over the time course shown, using TM cells in suspension. […] Data represent means of two experiments, error values shown are SEM, n=4 (two separate RVD runs per experiment).
Data represent means of two experiments, error values shown are SEM, n=4 (two separate RVD runs per experiment).

[3] = biological target: T1, Na—K—Cl co-transporter (Homo sapiens, UniProt P55011); experiment: Na—K—Cl co-transport measured as bumetamide-sensitive K influx (86Rb tracer) in human TM cell monolayers; format: cell-based
T1 construct: endogenous in cells; host or cells: cultured human trabecular meshwork (TM) cells, normal or glaucomatous donors
T1 sequence (P55011 1-1212): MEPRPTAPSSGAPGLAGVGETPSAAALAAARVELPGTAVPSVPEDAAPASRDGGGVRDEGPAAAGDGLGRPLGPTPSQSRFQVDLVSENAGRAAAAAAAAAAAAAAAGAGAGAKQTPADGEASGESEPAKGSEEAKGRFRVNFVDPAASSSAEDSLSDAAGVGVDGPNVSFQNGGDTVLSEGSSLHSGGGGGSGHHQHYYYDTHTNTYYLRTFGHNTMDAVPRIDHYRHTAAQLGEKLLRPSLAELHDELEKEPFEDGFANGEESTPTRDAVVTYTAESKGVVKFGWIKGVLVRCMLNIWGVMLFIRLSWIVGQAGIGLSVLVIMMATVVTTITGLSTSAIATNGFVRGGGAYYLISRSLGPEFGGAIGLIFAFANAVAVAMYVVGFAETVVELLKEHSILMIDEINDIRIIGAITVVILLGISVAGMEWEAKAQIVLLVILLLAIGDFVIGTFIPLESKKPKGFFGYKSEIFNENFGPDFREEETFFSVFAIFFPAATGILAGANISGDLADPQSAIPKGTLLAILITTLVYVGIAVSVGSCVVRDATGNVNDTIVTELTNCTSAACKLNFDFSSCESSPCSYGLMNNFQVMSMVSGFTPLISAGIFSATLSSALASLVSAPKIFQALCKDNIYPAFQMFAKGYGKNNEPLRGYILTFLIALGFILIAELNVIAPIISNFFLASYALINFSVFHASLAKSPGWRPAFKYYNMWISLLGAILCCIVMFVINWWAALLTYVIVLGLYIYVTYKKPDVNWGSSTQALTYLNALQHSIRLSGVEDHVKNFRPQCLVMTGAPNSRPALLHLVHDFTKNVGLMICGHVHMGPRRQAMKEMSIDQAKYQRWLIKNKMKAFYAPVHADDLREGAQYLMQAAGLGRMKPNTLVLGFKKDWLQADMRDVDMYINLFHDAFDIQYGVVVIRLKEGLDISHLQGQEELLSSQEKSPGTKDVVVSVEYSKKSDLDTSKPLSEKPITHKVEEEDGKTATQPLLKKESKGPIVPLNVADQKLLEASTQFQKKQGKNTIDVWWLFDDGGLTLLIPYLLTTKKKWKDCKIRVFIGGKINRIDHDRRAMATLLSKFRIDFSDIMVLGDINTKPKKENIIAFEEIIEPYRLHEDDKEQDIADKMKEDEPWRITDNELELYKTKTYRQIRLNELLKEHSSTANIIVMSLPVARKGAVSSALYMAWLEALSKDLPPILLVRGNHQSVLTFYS
Experimental: Na—K—Cl co-transport was measured as ouabain-insensitive, bumetamide-sensitive potassium influx, using ^86Rb as a tracer for potassium. […] The assay medium also contained ^86Rb (1 μCi/ml) (Dupont New England Nuclear, Boston, Mass.). The assay was terminated by rinsing the wells with ice-cold isotonic MgCl2, then extracting the contents with 0.2% sodium dodecyl sulfate (SDS), and determining the amount of radioactive contents by liquid scintillation. Osmolarities of all preincubation and assay media were verified by osmometry (Model 3W2, Advanced Instruments, Norwood, Mass.).
The cells were pretreated with Hepes-buffered minimal essential medium (MEM) ±10 μM bumetamide ±1 mM ouabain for 5 min, then assayed for 5 min in the same media plus ^86Rb. […] Data are means ±SEM, n=12.
Na—K—Cl co-transport activity of glaucomatous human TM cells was assessed as ouabain-insensitive, bumetamide-sensitive K influx, using ^86Rb as a tracer for K, as described previously. TM cells were preincubated for 5 minutes in a Hepes-buffered MEM containing 0 or 10 μM bumetamide in the presence of 1 mM ouabain, followed by a 5 minute assay in media of identical composition except that they also contained ^86Rb. […] Data are mean values ±SEM in seven normal TM cultures (donor age range, 38-68 years, n=12 in each cell culture) and in seven glaucomatous cultures (donor age range 41-75 years, n=7 in each cell culture).
Human TM cells were equilibrated in Hepes-buffered MEM for 30 minutes and then pretreated for 5 minutes in media containing 1 mM ouabain, 10 or 0 μM bumetamide, and 0.3 μM to 1 mM niflumic acid (NA). Cells were then assayed for bumetamide-sensitive K influx for 5 minutes in media identical to the pretreatment media but also containing ^86Rb (1 μCi/ml). […] Dashed line indicates control level of Na—K—Cl co-transport. Data are means ±SEM of at least 4 determinations from 3 experiments.

[4] = tested on: perfused human anterior chambers; experiment: Outflow facility of perfused human anterior chambers; conditions: perfused with bumetamide
Excerpt: The effect is expected to be transient because after the initial cell shrinkage, the co-transporter is activated to restore volume in the TM cells and, thus, the cell shrinkage is only transient. […] Here again, the cells rapidly respond to altered volume, in this case by activating ion efflux pathways to decrease volume of the cells to normal.

[5] = tested on: human TM cells; experiment: Intracellular volume of human TM cells (14C-urea/14C-sucrose water space or COULTER COUNTER electronic cell sizing), isotonic medium; format: cell-based; conditions: for reduction in intracellular volume: human TM cells, 10 μM bumetamide, isotonic conditions; for TM cell volume: hormones and intracellular regulators acting on the co-transporter
Experimental: The intracellular volume of human and bovine TM cells was evaluated by two methods: 1) radioisotopic evaluation of TM monolayer intracellular water space using ^14C-urea and ^14C-sucrose as markers of total and extracellular space, respectively; and 2) electronic cell sizing of suspended TM cells, using a COULTER COUNTER™ assay (Coulter Electronics, Ltd., Hialeah, Fla.). Details of these methods have been described previously by O'Donnell (O'Donnell, M. E., supra, 1993) the entirety of which is incorporated herein by reference.
By the first method, cell monolayers were preequilibrated for 30 minutes in Hepes MEM at 37° C. in an air atmosphere, then incubated for 20 minutes in Hepes MEM containing 0 or 10 μM bumetamide, ethacrynic acid, or other agents to be tested, and finally incubated for 10 minutes in the same medium containing either ^14C-urea or ^14C-sucrose (both at 1 μCi/ml). Monolayers were then rinsed with isotonic ice-cold MgCl2 and radioactivity of SDS extracts determined by liquid scintillation. Specific activities (counts per minute/ml) of ^14C-urea and ^14C-sucrose in the assay medium were determined and used to calculate water space associated with trapped radioactivity (expressed as μl/mg protein. Intracellular volume was calculated as the difference between the water space determined for ^14C-urea (a marker for intracellular plus trapped extracellular space) and ^14C-sucrose (a marker for trapped extracellular space).
as §1
Human TM cells were exposed to isotonic medium ±niflumic acid (10 or 100 μM)±10 μM bumetamide. Cell volume was assessed by COULTER COUNTER™ electronic cell sizing over the time course shown, using TM cells in suspension. Note that niflumic acid (NA) alone decreases volume of the TM cells and that exposing the cells to NA plus bumetamide causes a further decrease in TM cell volume. Data represent means of two experiments (all conditions shown tested in both experiments).

## O=S(=O)(O)c1cc(N=C=S)ccc1C=Cc1ccc(N=C=S)cc1S(=O)(=O)O [DIDS, 4,4′-diisothiocyanostilbene-2,2′-disulfonic acid]
[1]; DIDS 1 mM
  swelling-activated (hypotonic medium-induced) ion conductance: does not increase; also recorded: abolished; also recorded: blocked
[2]
  regulatory volume decrease (RVD): attenuated; also recorded: reduced

## O=C(O)c1ccccc1Nc1ccccc1 [DPC, diphenylamine carboxylate]
[2]
  regulatory volume decrease (RVD): attenuated

## O=C(O)c1cc([N+](=O)[O-])ccc1NCCCc1ccccc1 [NPPB]
[1]; NPPB 100 μM
  swelling-activated (hypotonic medium-induced) ion conductance: blocked; also recorded: abolished

## CC[N+](CC)(CC)CC [TEA, tetraethylammonium]
[1]; niflumic acid 100 μM plus K channel blocker TEA 1 mM
  niflumic acid-activated TM cell conductance: abolished
[2]
  regulatory volume decrease (RVD): diminished

## CCCCNc1cc(C(=O)O)cc(S(N)(=O)=O)c1Oc1ccccc1 [bumetamide]
[3]; human TM cells, 10 μM bumetamide, 86Rb tracer
  total K influx in TM cells: blocks a substantial portion
[4]
  outflow facility: sustained elevation
[5]; 30 minute exposure
  reduction in intracellular volume: 12±4%
[5]; 60 minute exposure
  reduction in intracellular volume: 25±6%
[5]; normal and glaucomatous human TM cells exposed to bumetamide
  cell volume of normal and glaucomatous TM cells: decreased

## Nc1ncnc2c1ncn2[C@@H]1O[C@@H]2COP(=O)(O)O[C@H]2[C@H]1O [cyclic AMP]
[3]; glaucomatous human TM cells
  inhibition of Na—K—Cl co-transporter of glaucomatous TM cells: insensitive
[5]
  TM cell volume: reduce

## NS(=O)(=O)c1cc(C(=O)O)c(NCc2ccco2)cc1Cl [furosemide]
[2]
  regulatory volume decrease (RVD): no effect

## NC[C@H](O)c1ccc(O)c(O)c1 [norepinephrine]
[5]
  TM cell volume: reduce
